According to PubChem BioAssay AID1259411 (Chemical Carcinogenesis Research Information System (CCRIS), 2018):
Calls of active or inactive are those of the source. No rule for the calls is given here.

System: rodent carcinogenicity bioassays, tumor incidence
Assay: CCRIS carcinogenicity studies
How it was run: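 NCI-built, expert-reviewed records of carcinogenicity and related test outcomes (mutagenicity, tumor promotion/inhibition) compiled from published and report sources, historical span 1985-2011, not updated.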

In the case of `CC(=O)N1C(C)CN(N=O)CC1C` (stereo unspecified), the carcinogen call (Species: RAT, Strain/Sex: F344/FEMALE, Route: ORAL, Dose: 0, 130 MG/L IN DRINKING WATER 5 D/WK FOR 30 WK, STUDY DURATION: 30-40 WK, Dose: 0, 130 MG/L IN DRINKING WATER 5 D/WK FOR 30 WK, STUDY DURATION: 30-40 WK, Tumor Site: Type of Lesion: ESOPHAGUS: CARCINOMA, TONGUE: PAPILLOMA OR CARCINOMA) is reported as “active; positive”.

With `O=[N+]([O-])c1ccc(-c2ccccc2)cc1` the carcinogen call (Species: DOG, Strain/Sex: MONGREL/FEMALE, Route: ORAL, Dose: 300 MG 3/WK FOR LIFE, Tumor Site: Type of Lesion: URINARY BLADDER: EPITHELIAL CARCINOMA) was “active; positive”, the carcinogen call (Species: RAT, Strain/Sex: SPRAGUE-DAWLEY/FEMALE, Route: SUBCUTANEOUS, Dose: 0, 50, 100 UMOL/KG IN DMSO 1/WK FOR 8 WK (STUDY DURATION: 62 WK), Dose: 0, 50, 100 UMOL/KG IN DMSO 1/WK FOR 8 WK (STUDY DURATION: 62 WK)) was “inactive; negative” and the carcinogen call (Species: RAT, Strain/Sex: SPRAGUE-DAWLEY/MALE, Route: SUBCUTANEOUS, Dose: 0, 50, 100 UMOL/KG IN DMSO 1/WK FOR 8 WK (STUDY DURATION: 62 WK), Dose: 0, 50, 100 UMOL/KG IN DMSO 1/WK FOR 8 WK (STUDY DURATION: 62 WK)) was “inactive; negative”.

With `O=[N+]([O-])c1ccccc1Cl` the carcinogen call (Species: MOUSE, Strain/Sex: CD-1/FEMALE, Route: ORAL, Dose: 3000, 6000 MG/KG IN DIET FOR 18 MO, Tumor Site: Type of Lesion: LIVER: HEPATOCELLULAR CARCINOMA) was “active; positive”.

For `O=Nc1ccc2ccccc2c1`, the carcinogen call (Species: MOUSE, Strain/Sex: SWISS/MALE, Route: SUBCUTANEOUS, Dose: 100 UG IN GELATIN ON FIRST, THIRD AND FIFTH D OF LIFE, Tumor Site: Type of Lesion: LIVER: HEPATOMA) was “active; positive”.

In the case of `CC(=O)CN(N=O)C(N)=O`, the carcinogen call (Species: RAT, Strain/Sex: F344/FEMALE, Route: GAVAGE, Dose: 0, 8 MG/ML IN CORN OIL/ETHYL ACETATE (2:1) 2/WK FOR 30 WK (STUDY DURATION: LIFETIME), Tumor Site: Type of Lesion: KIDNEY MESENCHYME: TUMOR, THYROID: FOLLICULAR TUMOR) is reported as “active; positive” and the carcinogen call (Species: RAT, Strain/Sex: F344/MALE, Route: GAVAGE, Dose: 0, 8 MG/ML IN CORN OIL/ETHYL ACETATE (2:1) 2/WK FOR 30 WK (STUDY DURATION: LIFETIME), Tumor Site: Type of Lesion: LUNG: TUMOR, MESOTHELIUM: TUMOR, KIDNEY MESENCHYME: TUMOR, Tumor Site: Type of Lesion: LUNG: TUMOR, MESOTHELIUM: TUMOR, KIDNEY MESENCHYME: TUMOR) is reported as “active; positive”.

In the case of `CC(=O)OCN(CC(C)C)N=O`, the carcinogen call (Species: RAT, Strain/Sex: F344/FEMALE, Route: SUBCUTANEOUS, Dose: 6.6 MG/KG 1/WK FOR 10 WK, Tumor Site: Type of Lesion: INJECTION SITE: MALIGNANT FIBROUS HISTIOCYTOMA) is reported as “active; positive”.

In the case of `CN(C)C=O`, the carcinogen call (Species: MOUSE, Strain/Sex: CRL:CD-1(ICR)BR/FEMALE, Route: INHALATION, Dose: 0, 25, 100, 400 PPM 6 HR/D 5 D/WK FOR 18 MO (STUDY DURATION: 18 MO), Dose: 0, 25, 100, 400 PPM 6 HR/D 5 D/WK FOR 18 MO (STUDY DURATION: 18 MO)) is reported as “inactive; negative”, the carcinogen call (Species: MOUSE, Strain/Sex: CRL:CD-1(ICR)BR/MALE, Route: INHALATION, Dose: 0, 25, 100, 400 PPM 6 HR/D 5 D/WK FOR 18 MO (STUDY DURATION: 18 MO), Dose: 0, 25, 100, 400 PPM 6 HR/D 5 D/WK FOR 18 MO (STUDY DURATION: 18 MO)) is reported as “inactive; negative” and the carcinogen call (Species: RAT, Strain/Sex: CRL:CD BR/FEMALE, Route: INHALATION, Dose: 0, 25, 100, 400 PPM 6 HR/D 5 D/WK FOR 24 MO (STUDY DURATION: 24 MO), Dose: 0, 25, 100, 400 PPM 6 HR/D 5 D/WK FOR 24 MO (STUDY DURATION: 24 MO)) is reported as “inactive; negative”. For the same molecule, the carcinogen call (Species: RAT, Strain/Sex: CRL:CD BR/MALE, Route: INHALATION, Dose: 0, 25, 100, 400 PPM 6 HR/D 5 D/WK FOR 24 MO (STUDY DURATION: 24 MO), Dose: 0, 25, 100, 400 PPM 6 HR/D 5 D/WK FOR 24 MO (STUDY DURATION: 24 MO)) was “inactive; negative”.

In the case of `Cn1c(=O)c2c(ncn2C)n(C)c1=O`, the carcinogen call (Species: RAT, Strain/Sex: SPRAGUE-DAWLEY/FEMALE, Route: ORAL, Dose: 0, 200, 430, 930, 2000 MG/L IN DRINKING WATER FOR 24 MO (STUDY DURATION: 2 YR), Dose: 0, 200, 430, 930, 2000 MG/L IN DRINKING WATER FOR 24 MO (STUDY DURATION: 2 YR)) is reported as “inactive; negative”, the carcinogen call (Species: RAT, Strain/Sex: SPRAGUE-DAWLEY/MALE, Route: ORAL, Dose: 0, 200, 430, 930, 2000 MG/L IN DRINKING WATER FOR 24 MO (STUDY DURATION: 2 YR), Dose: 0, 200, 430, 930, 2000 MG/L IN DRINKING WATER FOR 24 MO (STUDY DURATION: 2 YR)) is reported as “inactive; negative” and the carcinogen call (Species: RAT, Strain/Sex: WISTAR/MALE,FEMALE, Route: ORAL, Dose: 0, 0.1, 0.2% SOLN. IN DRINKING WATER FOR 78 WK, Dose: 0, 0.1, 0.2% SOLN. IN DRINKING WATER FOR 78 WK) is reported as “inactive; negative”.

With `C=CSCCC(N)C(=O)O` (stereo unspecified) the carcinogen call (Species: RAT, Strain/Sex: F344/MALE, Route: INTRAPERITONEAL, Dose: 0, 50-100 MG/KG 5 D/WK FOR 12 WK, STUDY DURATION: 25 MO, Dose: 0, 50-100 MG/KG 5 D/WK FOR 12 WK, STUDY DURATION: 25 MO, Tumor Site: Type of Lesion: LIVER: HEPATOCELLULAR CARCINOMA) was “active; positive” and the carcinogen call (Species: RAT, Strain/Sex: F344/MALE, Route: ORAL, Dose: 0, 0.05% IN METHYL-DEFICIENT DIET FOR 20 MO, Tumor Site: Type of Lesion: LIVER: HEPATOCELLULAR CARCINOMA) was “active; positive”.

`CC(C)N=C=NC(C)C` was tested, and the carcinogen call (Species: Mouse, Strain/Sex: B6C3F1/Female (50/Group), Route: Dermal, Dose: 0, 10, 20, 40 mg/kg in anhydrous ethanol 5 d/wk for 2 yr, Dose: 0, 10, 20, 40 mg/kg in anhydrous ethanol 5 d/wk for 2 yr) was “inactive; negative”, the carcinogen call (Species: Mouse, Strain/Sex: B6C3F1/Male (50/Group), Route: Dermal, Dose: 0, 10, 20, 40 mg/kg in anhydrous ethanol 5 d/wk for 2 yr, Dose: 0, 10, 20, 40 mg/kg in anhydrous ethanol 5 d/wk for 2 yr) was “inactive; negative” and the carcinogen call (Species: Rat, Strain/Sex: F344/N/Female (50/Group), Route: Dermal, Dose: 0, 10, 20, 40 mg/kg in anhydrous ethanol 5 d/wk for 2 yr, Dose: 0, 10, 20, 40 mg/kg in anhydrous ethanol 5 d/wk for 2 yr) was “inactive; negative”. For the same molecule, the carcinogen call (Species: Rat, Strain/Sex: F344/N/Male (50/Group), Route: Dermal, Dose: 0, 10, 20, 40 mg/kg in anhydrous ethanol 5 d/wk for 2 yr, Dose: 0, 10, 20, 40 mg/kg in anhydrous ethanol 5 d/wk for 2 yr) was “inactive; negative”.

`CCCCNN` was tested, and the carcinogen call (Species: MOUSE, Strain/Sex: SWISS/FEMALE, Route: ORAL, Dose: 0, 0.0125% SOLUTION IN DRINKING WATER DAILY FOR LIFE FOR AN AVERAGE DAILY INTAKE OF 0, 1.3 MG (STUDY DURATION: 130 WK), Dose: 0, 0.0125% SOLUTION IN DRINKING WATER DAILY FOR LIFE FOR AN AVERAGE DAILY INTAKE OF 0, 1.3 MG (STUDY DURATION: 130 WK), Tumor Site: Type of Lesion: LUNG: ADENOMA, LUNG: ADENOMA OR ADENOCARCINOMA) was “active; positive” and the carcinogen call (Species: MOUSE, Strain/Sex: SWISS/MALE, Route: ORAL, Dose: 0, 0.0125% SOLUTION IN DRINKING WATER DAILY FOR LIFE FOR AN AVERAGE DAILY INTAKE OF 0, 2.1 MG (STUDY DURATION: 130 WK), Dose: 0, 0.0125% SOLUTION IN DRINKING WATER DAILY FOR LIFE FOR AN AVERAGE DAILY INTAKE OF 0, 2.1 MG (STUDY DURATION: 130 WK), Tumor Site: Type of Lesion: LUNG: ADENOMA, LUNG: ADENOMA OR ADENOCARCINOMA) was “active; positive”.

For `CC(C)[C@H](C(=O)O[C@H](C#N)c1cccc(Oc2ccccc2)c1)c1ccc(Cl)cc1`, the carcinogen call (Species: Mouse, Strain/Sex: Crl:CD-17BR/Female (80/Group), Route: Oral, Dose: 0, 35, 150 ppm in diet for 18 mo, study duration 18 mo, Dose: 0, 35, 150 ppm in diet for 18 mo, study duration 18 mo) was “inactive; negative. a 350 ppm group was terminated at study day 58 due to self-trauma and” and the carcinogen call (Species: Mouse, Strain/Sex: Crl:CD-17BR/Male (80/Group), Route: Oral, Dose: 0, 35, 150 ppm in diet for 18 mo, study duration 18 mo, Dose: 0, 35, 150 ppm in diet for 18 mo, study duration 18 mo) was “inactive; negative. a 350 ppm group was terminated at study day 58 due to self-trauma and”.
